The source of these data is patent US9376426B2, “Pyridazinone derivatives” (MERCK PATENT GMBH, priority 2009, dated 2016).

Where a name gives a salt, the structure may show the parent alone.

The target of assay [1] is T1, Met kinase (Homo sapiens, UniProt P08581). The assay is described as follows: Met kinase inhibition, flashplate method (enzyme). In kind it is biochemical. More on the design: 6His (N); purchased Upstate 14-526; host or cells: Sf21 insect cells (S. frugiperda), baculovirus. From the text:
Measurement of Met Kinase Activity
According to the manufacturer's data (Met, active, upstate, catalogue No. 14-526), Met kinase is expressed for the purposes of protein production in insect cells (Sf21; S. frugiperda) and subsequent affinity-chromatographic purification as “N-terminal 6His-tagged” recombinant human protein in a baculovirus expression vector.
Flashplate Method (Met Kinase)
The test plates used are 96-well Flashplate® microtitre plates from Perkin Elmer (Cat. No. SMP200). The components of the kinase reaction described below are pipetted into the assay plate. The Met kinase and the substrate poly Ala-Glu-Lys-Tyr, (pAGLT, 6:2:5:1), are incubated for 3 hrs at room temperature with radioactively labelled ^33P-ATP in the presence and absence of test substances in a total volume of 100 μl. The reaction is terminated using 150 μl of a 60 mM EDTA solution. After incubation for a further 30 min at room temperature, the supernatants are filtered off with suction, and the wells are washed three times with 200 μl of 0.9% NaCl solution each time. The measurement of the bound radioactivity is carried out by means of a scintillation measuring instrument (Topcount NXT, Perkin-Elmer).
The full value used is the inhibitor-free kinase reaction. This should be approximately in the range 6000-9000 cpm. The pharmacological zero value used is staurosporin in a final concentration of 0.1 mM. The inhibitory values (IC50) are determined using the RS1_MTS program.
Kinase reaction conditions per well:
10 μl of substance to be tested in assay buffer with 10% of DMSO
10 μl of ATP (final concentration 1 μM cold, 0.35 μCi of ^33P-ATP)
50 μl of Met kinase/substrate mixture in assay buffer;
• (10 ng of enzyme/well, 50 ng of pAGLT/well) • Solutions used: • Assay buffer: • 50 mM HEPES • 3 mM magnesium chloride • 3 μM sodium orthovanadate • 3 mM manganese(II) chloride • 1 mM dithiothreitol (DTT) • pH=7.5 (to be set using sodium hydroxide) • Stop solution: • 60 mM Titriplex III (EDTA) • ^33P-ATP: Perkin-Elmer; • Met kinase: Upstate, Cat. No. 14-526, Stock 1 μg/10 μl; spec. activity 954 U/mg; • Poly-Ala-Glu-Lys-Tyr, 6:2:5:1:Sigma Cat. No. P1152 In-Vivo Tests Experimental Procedure: […]

In assay [2] the target is T1, Met kinase. The assay is described as follows: Met kinase inhibition (cell). In kind it is cell-based.

T1 sequence (P08581 25-1390): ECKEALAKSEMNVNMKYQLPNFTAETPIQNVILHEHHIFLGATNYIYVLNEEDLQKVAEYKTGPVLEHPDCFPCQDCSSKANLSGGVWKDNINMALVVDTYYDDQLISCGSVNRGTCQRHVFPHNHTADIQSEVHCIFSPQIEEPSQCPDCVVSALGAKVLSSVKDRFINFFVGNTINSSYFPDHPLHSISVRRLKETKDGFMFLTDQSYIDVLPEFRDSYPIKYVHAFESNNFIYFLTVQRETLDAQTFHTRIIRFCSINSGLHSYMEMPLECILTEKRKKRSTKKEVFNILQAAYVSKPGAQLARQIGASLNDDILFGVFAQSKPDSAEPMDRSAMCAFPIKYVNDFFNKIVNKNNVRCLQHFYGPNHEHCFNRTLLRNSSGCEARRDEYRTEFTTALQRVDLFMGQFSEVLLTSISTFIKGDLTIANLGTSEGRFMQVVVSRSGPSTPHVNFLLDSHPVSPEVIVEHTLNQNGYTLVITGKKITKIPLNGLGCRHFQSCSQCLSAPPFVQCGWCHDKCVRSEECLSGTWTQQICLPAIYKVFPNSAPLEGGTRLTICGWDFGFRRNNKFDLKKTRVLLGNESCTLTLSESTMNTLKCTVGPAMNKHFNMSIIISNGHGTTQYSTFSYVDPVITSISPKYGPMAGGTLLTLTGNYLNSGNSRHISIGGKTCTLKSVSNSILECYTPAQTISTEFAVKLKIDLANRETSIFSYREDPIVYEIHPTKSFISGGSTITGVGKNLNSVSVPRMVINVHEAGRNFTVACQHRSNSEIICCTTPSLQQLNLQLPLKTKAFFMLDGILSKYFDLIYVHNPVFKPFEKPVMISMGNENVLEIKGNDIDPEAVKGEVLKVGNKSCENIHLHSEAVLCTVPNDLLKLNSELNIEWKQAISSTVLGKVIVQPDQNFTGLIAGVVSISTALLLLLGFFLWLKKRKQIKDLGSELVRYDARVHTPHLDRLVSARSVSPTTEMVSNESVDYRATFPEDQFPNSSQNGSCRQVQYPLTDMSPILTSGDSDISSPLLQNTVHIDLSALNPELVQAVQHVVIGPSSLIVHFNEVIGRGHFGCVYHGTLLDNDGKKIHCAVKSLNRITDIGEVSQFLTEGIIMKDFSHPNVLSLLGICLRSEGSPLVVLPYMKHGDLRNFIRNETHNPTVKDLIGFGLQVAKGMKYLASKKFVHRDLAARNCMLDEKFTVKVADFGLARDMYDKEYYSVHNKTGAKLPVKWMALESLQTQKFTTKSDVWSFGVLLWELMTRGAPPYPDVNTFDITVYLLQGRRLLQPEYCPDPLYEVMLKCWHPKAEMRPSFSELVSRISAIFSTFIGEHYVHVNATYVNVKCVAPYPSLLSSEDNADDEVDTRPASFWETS

For the compound `CN(C)CCCOc1cnc(-c2cccc(Cn3nc(Nc4ccccc4)ccc3=O)c2)nc1` [Compound A1, 2-{3-[5-(3-dimethylaminopropoxy)pyrimidin-2-yl]benzyl}-6-phenylamino-2H-pyridazin-3-one], the IC50 on Met kinase [1] lay in the range of 0.001 to 0.1 µM; at Met kinase [2], 0.1 to 10 µM.

Regarding `O=c1ccc(Nc2ccccc2)nn1Cc1cccc(-c2ncc(-c3cnn(C4CCNCC4)c3)cn2)c1` [Compound A2, 6-phenylamino-2-{3-[5-(1-piperidin-4-yl-1H-pyrazol-4-yl)pyrimidin-2-yl]benzyl}-2H-pyridazin-3-one], the values for the 50% inhibitory concentration (IC50) at Met kinase [1] and at Met kinase [2] were 0.001 to 0.1 µM and 0.1 to 10 µM, respectively.

For `O=c1ccc(Oc2ccccc2)nn1Cc1cccc(-c2ncc(-c3cnn(CCN4CCCC4)c3)cn2)c1` [Compound A3, 6-phenoxy-2-(3-{5-[1-(2-pyrrolidin-1-ylethyl)-1H-pyrazol-4-yl]pyrimidin-2-yl}benzyl)-2H-pyridazin-3-one], the IC50 against Met kinase [1] was 0.001 to 0.1 µM; against Met kinase [2], 0.1 to 10 µM.

Turning to `O=c1ccc(Oc2ccccc2)nn1Cc1cccc(-c2ncc(-c3cnn(C4CCNCC4)c3)cn2)c1` [Compound A4, 6-phenoxy-2-{3-[5-(1-piperidin-4-yl-1H-pyrazol-4-yl)pyrimidin-2-yl]benzyl}-2H-pyridazin-3-one hydrochloride], the IC50 at Met kinase [1] and against Met kinase [2] was 0.1 to 10 µM each time.

As for `CN(C)CCCOc1cnc(-c2cccc(Cn3nc(C(N)=O)ccc3=O)c2)nc1` [Compound A8, 1-{3-[5-(3-dimethylaminopropoxy)pyrimidin-2-yl]benzyl}-6-oxo-1,6-dihydropyridazine-3-carboxamide], the IC50 against Met kinase [1] and against Met kinase [2] was 0.1 to 10 µM in each case.
